Assay results: US11846640B2, “Identification of anticoagulants in a sample” (DSM IP Assets B.V., priority 2013, dated 2023)

Legend:
Type in all cases: biochemical, human
[1] = test system: normal plasma pool (NPP); test: PiCT Method 3 clotting time on ACL TOP 500; settings: Table 8B (argatroban), PiCT Method 3, NPP spiked, mean n = 4
Description: The 4 methods (see above) are in more detail described in the Examples. Specific pipetting schemes were designed using NPP spiked with incremental amounts of anticoagulants in order to achieve high reproducibility of the test system, which is required for drug identification including use in a POC system. […] […]-50/I-180/50-S). […] […]-65/I-180/35-S on the ACL TOP® 500 or […]-65/I-180/40-S on the STA Compact® or […]-65/[…]-40 on the BCS® XP. […] […]-70/I-180/40-S on the ACL TOP® 500 or STA Compact®, or […]-60/I-180/45-S on the BCS® XP.

[2] = test system: plasma samples; test: PT (HemosIL PT recombiplastin) clotting time; settings: for Clotting time with PT: Table 6, spiked plasma, mean
Experimental: (§1) In order to address the above question, i.e. to determine the nature of an anticoagulant in a sample, a combination of several methods has to be performed, including PiCT® Method 1, PiCT® Method 4, aPTT (HemosIL™ aPTT SP), PT (HemosIL™ PT recombiplastin), and sometimes even a modified PiCT® Method 1 wherein polybrene has been added. In order to simulate this, plasma samples spiked with different levels of anticoagulants were analyzed using the ACL TOP® 500 analyzer.

[3] = test system: plasma samples; test: PiCT Method 1 with polybrene added, clotting time; settings: Table 6, spiked plasma, mean
Description: By the addition of polybrene a distinction can be done, which of the anticoagulants is really present in the sample: if after addition of polybrene the measured clotting times are again back to RR when using the PiCT® Method 1, the sample comprises heparins, such as e.g. UFH or LMWH. Alternatively, if the result is not going back to RR, the sample comprises low concentrations of dabigatran or hirudin. […] The particular clotting times measured for the different anticoagulants are shown in Table 6, which is an example of results obtained in spiked plasma samples.
as §1, with “analyzer. For each drug, a specific pattern was obtained, i.e. clotting times within the RR and clotting times above the RR, depending on the used testing method, which is unique at least for the class of anticoagulant or even for a specific anticoagulant.” for “analyzer.”

Structure (SMILES)	Clotting time ([1]; 0.2 μg/ml) [s]	Clotting time ([1]; 0.4 μg/ml) [s]	Clotting time ([1]; 0.6 μg/ml) [s]	Clotting time ([1]; 0.8 μg/ml) [s]	Clotting time ([1]; 1.0 μg/ml) [s]	Clotting time ([1]; 1.2 μg/ml) [s]	Clotting time ([1]; 1.4 μg/ml) [s]	Clotting time ([1]; 1.6 μg/ml) [s]	Clotting time ([1]; 1.8 μg/ml) [s]	Clotting time ([1]; 2.0 μg/ml) [s]	Clotting time with PT ([2]; 0.3 μg) [s]	Clotting time with PT ([2]; 1.5 μg) [s]	Clotting time with PiCT ® Method 1 + polybrene ([3]; 0.3 μg) [s]	Clotting time with PiCT ® Method 1 + polybrene ([3]; 1.5 μg) [s]	Clotting time with PT ([2]; 50 ng) [s]	Clotting time with PT ([2]; 200 ng) [s]	PT clotting time relative to reference range (RR) ([2]; only at higher doses, in the range of 200 ng or more)
CC1CNc2c(cccc2S(=O)(=O)N[C@@H](CCCNC(=N)N)C(=O)N2CC[C@@H](C)C[C@@H]2C(=O)O)C1 (some centres unmarked) [argatroban]	113	145	162	179	198	204	210	232	234	240	15.0	31.2	85.6	126.4			
O=C(NC[C@H]1CN(c2ccc(N3CCOCC3=O)cc2)C(=O)O1)c1ccc(Cl)s1 [rivaroxaban]															12.2	20.3	above the RR
